Assay results as given in US20250206707A1, “NOVEL COMPOUND INDUCING EXPRESSION OF ANTI-AGING GENE KLOTHO” (KLOTHO SCIENCES CO., LTD., priority 2022, published 2025).

What was measured:
[1] = Stability evaluation with human liver microsomes (MS/MS analysis); type: in vitro ADME; settings: human microsomes 0.5 mg/ml, 1 μM compound, 30 min, 37° C., with NADPH; tolbutamide as control; FIG. 1
Procedure: Each KS compound in Example 1 was dissolved in 10 mM DMSO, and tolbutamide, used as a standard, was dissolved in methanol at a concentration of 10 mM.
In a glass test tube (13×100 mm), 0.1 M KH2PO4 (147.5 μl), 0.1 M MgCl2 (25 μl), and 50 μl of human […] microsomes (mixed-gender pool) at a concentration of 0.5 mg/ml purchased from Corning Life Science and each KS compound solution were mixed to a final 1 μM of each KS compound solution, pre-incubated for 3 min in a shaking water bath (37° C., 40 rpm), and then incubated for 30 min in the presence or absence of 10 mM NADPH, 25 μL.
Aliquots of 50 μl were taken before the reaction and after the reaction, and then the reaction was stopped by adding […] of acetonitrile and vortexed for 1 min. The mixture was centrifuged (4,000 rpm, 4° C.) for 20 minutes, and each supernatant was transferred to a new glass test tube and dried for 2 hours using a centrifugal concentrator. After ensuring complete drying, 200 μl of 40% acetonitrile was added to each glass test tube and resuspended by vortexing for 1 minute. The resuspension solution was centrifuged for 10 minutes (4,000 rpm, 4° C.) and 150 μl of the supernatant was taken for HPLC-UV analysis. The Agilent 1200 series was used for HPLC-UV analysis and the Agilent 6410 was used for MS/MS analysis. The conditions used for the analysis were as follows: […]

[2] = tested on: klotho gene; assay: Klotho gene mRNA expression by PCR in RPTECs; type: cell-based, human; settings: 6 hours exposure, FIG. 2
Procedure: Human renal tubular epithelial cells (RPTECs) were treated with each KS compound of Example 1 at different concentrations, and mRNA was collected from the cells 6 hours later, and the mRNA expression of the klotho gene was confirmed by PCR. Renal Proximal Tubular Epithelial Cells (RPTECs) were purchased from Lonza and cultured at 37° C., 5% CO2 and used in the experiments. Each KS compound was added to the medium of the cells and after 6 hours of exposure, RNA was isolated from the cells and converted to cDNA using reverse transcriptase and amplified by PCR method to determine the expression level. As a control, DMSO was added instead of the compound.
The primers used in the experiment are listed below.
The expression levels of the bands in the gel photographs were quantified using Image J and plotted on a graph. In the gel picture, the upper band represents the secreted form of klotho, and the lower band represents the membrane form of klotho.

[3] = tested on: Human retinal epithelial cells (ARPE); assay: Cytotoxicity evaluation (EX-cytox absorbance); type: cell-based; settings: different concentrations, 24 hours incubation, EX-cytox 1 hour, FIG. 3
Procedure: Human retinal epithelial cells (ARPE) in culture were treated with KS compounds of Example 1 at different concentrations and incubated for 24 hours, followed by a 1-hour reaction with EX-cytox from GOGEN, and the change in absorbance was measured.

[4] = tested on: intracellular reactive oxygen species (ROS) in renal tubule epithelial cells (RPTECs); assay: Analysis of intracellular reactive oxygen species (ROS) in RPTECs; type: cell-based, human; settings: RPTEC cells, 2.5 µM compound, 6 h; FIG. 4
Procedure: Renal tubule epithelial cells (RPTECs) were treated with each KS compound of Example 1 to determine the changes in the amount of intracellular reactive oxygen species (ROS).
RPTEC cells in culture were incubated with 2.5 µM of each KS compound for 6 h. The amount of ROS present in the cells was measured by adding Reactive Oxygen Detection Reagents (Invitrogen) and incubating for 1 h. The change in fluorescence was measured using a spectrophotometer.
FIG. 4 is a graph showing the amount of ROS remaining in RPTEC cells. It was confirmed that the amount of ROS in the cells treated with KS103 and KS104 compounds was reduced by about 30% compared to the cells treated with solvent (DMSO) alone.

[5] = tested on: TXN, AKT1, NR4A3, NLRP3, FOXP3 genes; assay: Expression changes in oxidative stress-related genes (NGS) in aged RPTEC cells; type: cell-based, human; settings: 7th passage RPTEC, 2.5 μM, 6 hours, compared with 4-passage RPTEC, FIG. 5, FIG. 6
Procedure: 2.5 μM of each KS compound of Example 1 was added to relatively aged 7th passage (#7) renal tubular epithelial cells (RPTEC) cells, cultured for 6 hours, mRNA was collected, and total gene expression was analyzed using a next generation sequencer (NGS). To confirm changes in gene expression due to aging, through gene expression comparison with relatively young 4-passage (#4) RPTEC cells, genes with increased expression in young cells (TXN, AKT1, NR4A3, NLRP3, FOXP3 genes) were confirmed. The expression levels of these genes in young cells were compared to the expression change values caused by treatment with the compounds of Example 1 (senescent cells were treated with the compounds of Example 1, respectively).

[6] = tested on: human retinal pigment epithelial cells (ARPE); assay: Protective effect on retinal pigment epithelial cells against oxidative stress; type: cell-based; settings: 2.5 μM compound, BSO 50 mM for 6 hours, Cyto X absorbance 450 nm, FIG. 7
Procedure: To determine the preventive or therapeutic effect of each KS compound of Example 1 on macular degeneration, the protection of retinal pigment epithelial cells against oxidative stress was determined.
First, human retinal pigment epithelial cells were tested using retinal pigment epithelial cells (ARPE) purchased from ATCC, USA. Equal numbers of 10,000 ARPE cells were added to each well, and after 18 hours of incubation, the cells were replaced with DMEM F-12 medium without serum (FBS).
Each KS compound was added at a concentration of 2.5 μM, and the cells were treated with buthionine sulfoximine (BSO) at a concentration of 50 mM for 6 hours to induce oxidative stress. To measure the viability of these cells, Cyto X (Cell viability assay kit) was added and the time-varying absorbance was measured at 450 nm.

| Compound | microsomal stability [1] | ability to express the klotho gene compared to KS101 as well as other fluorine-bound compounds [2] | expression effect on the klotho gene (mRNA, sum of secreted and membrane form bands) ([2]; different concentrations, Image J quantification) | cytotoxicity [3] | reduction of the amount of ROS in the cells compared to cells treated with solvent (DMSO) alone [4] | expression of oxidative stress-related genes in aged cells versus young cells [5] | protection against oxidative stress-induced cell death [6] |
| --- | --- | --- | --- | --- | --- | --- | --- |
| Fc1ccc(Nc2nc3cc(F)c(F)cc3o2)cc1F [KS104, N-(3,4-difluorophenyl)-5,6-difluorobenzo[d]oxazol-2-amine] | best microsomal stability | more than doubled | best expression effect | lowest cytotoxicity | about 30% | induced to a greater extent than in young cells | inhibited oxidative stress-induced cell death |
| Fc1ccc2nc(Nc3ccc(F)c(F)c3)oc2c1 [KS103, N-(3,4-difluorophenyl)-6-fluorobenzo[d]oxazol-2-amine] |  |  |  |  | about 30% |  | inhibited oxidative stress-induced cell death |
